In patent US20120245029A1, “NOVEL PHOSPH(ON)ATE- AND SULF(ON)ATE-BASED PHOSPHATE MODIFIED NUCLEOSIDES USEFUL AS SUBSTRATES FOR POLYMERASES AND AS ANTIVIRAL AGENTS” (priority 2009, published 2012):

Tests used:
[1] = biological target: T1, HIV-1 RT (Human immunodeficiency virus type 1 group M subtype B, UniProt P04585); details: previous experiments / already known; cited from earlier work
T1 construct: HIV-1 Reverse Transcriptase serves, in the HIV-1 viral replication process, as catalyst; purchased Ambion

[2] = biological target: T1, HIV-1 RT; experiment: Elongation of primer P1 directed by template T2 by HIV-1 RT; assay type: biochemical; details: for % product P + 1 / % product P + 2 / % product P + 3 / % product P + 4 / % product P + 5 / % product P + 6 / % product P + 7: 120 minutes reaction, P1T2, percentage of the total amount of radio-nucleotides
Procedure: (§1) DNA polymerase reactions: end-labeled primer was annealed to its template by combining primer and template in a molar ratio of 1:2 and heating the mixture to 70° C. for 10 minutes followed by slow cooling to room temperature over a period of 1.5 hour. For the incorporation of a modified nucleoside, a series of 20 μL-batch reactions was performed with the enzyme HIV-1 RT (Ambion, 10 U/μL stock soln, specific activity 8.095 Wring, concentration 1.2 mg/mL). The final mixture contained 125 nM primer template complex, RT buffer (250 mM Tris.HCl, 250 mM KCl, 50 mM MgCl2, 2.5 mM spermidine, 50 mM dithiothreitol (DTT); pH 8.3), 0.025 U/μL HIV-1 RT, and different concentrations of the phosphoramidate to be tested (1 mM, 500 μM, 200 μM and 100 μM).
(§2) Electrophoresis: all polymerase reaction aliquots (2.5 μL) were quenched by the addition of 10 μL of loading buffer (90% formamide, 0.05% bromophenol blue, 0.05% xylene cyanol and 50 mM ethylenediaminetetraacetic acid (EDTA)). Samples were heated at 85° C. for 5 minutes prior to analysis by electrophoresis for 2.5 hours at 2000 V on a 30 cm×40 cm×0.4 mm 20% (19:1 mono:bis) denaturing gel in the presence of a 100 mM Tris-borate, 2.5 mM EDTA buffer; pH 8.3. Products were visualized by phosphorimaging. The amount of radioactivity in the bands corresponding to the products of enzymatic reactions was determined by using the imaging device Cyclone@ and the Optiquant image analysis software (Perkin Elmer).
In order to further investigate the potentiality of the leaving groups of this invention, L-Cys-dAMP (2) and 3-phosphono-L-Ala-dAMP (3) were tested in the template dependent incorporation of more than one phosphoramidate nucleotides by HIV-1 RT (FIG. 4). For this purpose, Primer P1 and template T2 containing an overhang of seven thymidine residues and four nucleobases (GGAC) at the 3′-end were used.
In order to investigate the strand elongation capacity of compound 2, a template dependent incorporation of more than one nucleotide experiment was carried out. In this experiment HIV-1 RT and P1T2 duplex, where seven thymidine bases overhang of the template is flanked by four non-thymidine units at the 3′-end were used. A range of concentration of the building block was incubated with the primer-template complex and 0.025 U/μL of enzyme at the appropriate temperature, samples were quenched after 15, 30, 60, 90 and 120 minutes respectively and analyzed by 20% polyacrylamide gel electrophoresis.

[3] = biological target: T1, HIV-1 RT; experiment: Gel-based single nucleotide incorporation assay by HIV-1 RT (primer-template P1T1); assay type: biochemical; details: for % of P + 1: P1T1 125 nM; for conversion within 60 minutes: P1T1
Procedure: as §1, §2
Here, the ability of phosphoramidate analogues as substrate for HIV-1 RT was investigated by the gel-based single nucleotide incorporation assay. The natural nucleoside triphosphate (dATP) was used as reference.
The ability of HIV-1 reverse transcriptase to incorporate phosphoramidate analogues 2-6 was analysed by gel-based single-nucleotide-incorporation assays using the primer-template complex P1T1.

[4] = biological target: T1, HIV-1 RT; experiment: as above; assay type: biochemical; details: among phosphoramidate analogues 1-5
[5] = biological target: T1, HIV-1 RT; experiment: Steady-state kinetics of single nucleotide incorporation by HIV-1 RT; assay type: biochemical; details: P1T1 125 nM, HIV-1 RT 0.025 U/μL, 37° C.
Procedure: The efficiency of incorporation by HIV-1 RT of 3-phosphono-L-Ala-dAMP (3) was investigated by determination of the kinetic parameters Km and Vmax. The steady-state kinetics assay was carried out as follows. The reaction was started by adding HIV-1 RT to P1-T1 complex, buffer, 3-phosphono-L-Ala-dAMP (3) and dATP. The final mixture (20 μL) contained 0.025 U/μL HIV-1 RT, buffer, 125 nM primer-template complex, and various concentrations 3-phosphono-L-Ala-dAMP and dATP. The range of concentrations for phosphoamidates was optimized according to a Km value for the incorporation of an individual nucleotide. In the case of HIV-1 RT, reaction mixtures containing the enzyme in concentration (0.025 U/μL) to attain 5-25% conversion and appropriate substrate concentration (0.5-100 μM used for 3-phosphono-L-Ala-dAMP (3) and 0.1-10 μM used for dATP) were incubated at 37° C. and run for 8-10 different time intervals (2-20 minutes). The incorporation velocities were calculated based on the percentage of single-nucleotide extension product (P+1 band). The kinetic parameters (Vmax and Km) were determined by plotting V (nM/min) versus substrate concentration (μM) and fitting the data point to a nonlinear Michaelis-Menten regression using GraphPad Prism software.

| Structure (SMILES) | % of P + 1 ([3]; 100 μM substrate, 10 min) [%] | % of P + 1 ([3]; 100 μM substrate, 20 min) [%] | % of P + 1 ([3]; 100 μM substrate, 30 min) [%] | % of P + 1 ([3]; 100 μM substrate, 60 min) [%] | % of P + 1 ([3]; 100 μM substrate, 120 min) [%] | % of P + 1 ([3]; 200 μM substrate, 10 min) [%] | % of P + 1 ([3]; 200 μM substrate, 20 min) [%] | % of P + 1 ([3]; 200 μM substrate, 30 min) [%] | % of P + 1 ([3]; 200 μM substrate, 60 min) [%] | % of P + 1 ([3]; 200 μM substrate, 120 min) [%] | % of P + 1 ([3]; 1 mM substrate, 60 min) [%] | % product P + 1 [2] [%] | % product P + 2 [2] [%] | % product P + 3 [2] [%] | % product P + 4 [2] | % product P + 5 [2] [%] | % product P + 6 [2] [%] | % product P + 7 [2] [%] | conversion within 60 minutes ([3]; 500 μM substrate, 60 min) [%] | other results |
| --- | --- | --- | --- | --- | --- | --- | --- | --- | --- | --- | --- | --- | --- | --- | --- | --- | --- | --- | --- | --- |
| Nc1ncnc2c1ncn2[C@H]1C[C@H](O)[C@@H](COP(=O)(O)N[C@@H](CO)C(=O)O)O1 [Ser-dAMP] |  |  |  |  |  |  |  |  |  |  |  |  |  |  |  |  |  |  |  | substrate / leaving group quality for the polymerase (in words), already known [1]: poor substrate |
| Nc1ncnc2c1ncn2[C@H]1C[C@H](O)[C@@H](COP(=O)(O)N[C@@H](CS(=O)(=O)O)C(=O)O)O1 [Compound 2, 2′-Deoxyadenosine-5′-(L-cysteic acid) phosphoramidate] | 7.7 | 7.9 | 8.5 | 9.3 | 9.1 | 13.7 | 15.6 | 16.0 | 15.8 | 18.1 | 63.1 |  |  |  |  |  |  |  |  | primer extension products (in words) ([2]; P1T2, gel electrophoresis): only extended a primer with one and two adenine nucleobases; % of P + 1 ([3]; 500 μM substrate, 10 min): 27.7%; % of P + 1 ([3]; 500 μM substrate, 20 min): 29.6%; % of P + 1 ([3]; 500 μM substrate, 30 min): 38.3%; % of P + 1 ([3]; 500 μM substrate, 60 min): 38.4%; % of P + 1 ([3]; 500 μM substrate, 120 min): 41.5% |
| Nc1ncnc2c1ncn2[C@H]1C[C@H](O)[C@@H](COP(=O)(O)N(CP(=O)(O)O)CP(=O)(O)O)O1 [Compound 6, 2′-deoxyadenosine-5′-[iminobis(methanephosphonate)] phosphoramidate] |  |  |  |  |  |  |  |  |  |  |  | 8.6 | 53.1 | 10.8 | traces | 0 | 0 | 0 | 90 |  |
| Nc1ncnc2c1ncn2[C@H]1C[C@H](O)[C@@H](COP(=O)(O)N[C@@H](COS(=O)(=O)O)C(=O)O)O1 [Compound 4, 2′-Deoxyadenosine-5′-(O-sulfonato-L-serine) phosphoramidate] |  |  |  |  |  |  |  |  |  |  | 8.1 |  |  |  |  |  |  |  |  | substrate quality for HIV-1 RT (in words) [4]: much less good substrates |
| Nc1ncnc2c1ncn2[C@H]1C[C@H](O)[C@@H](COP(=O)(O)OP(=O)(O)OP(=O)(O)O)O1 [dATP, reference compound] |  |  |  |  |  |  |  |  |  |  |  |  |  |  |  |  |  |  |  | Km [5]: 0.93 ± 0.26 µM; Vmax [5]: 32.27 ± 2.32 nM/min |
| Nc1ncnc2c1ncn2[C@H]1C[C@H](O)[C@@H](COP(=O)(O)N(CCP(=O)(O)O)CCP(=O)(O)O)O1 [Compound 7, 2′-deoxyadenosine-5′-[iminobis(ethyl phosphonate)] phosphoramidate] |  |  |  |  |  |  |  |  |  |  |  | 15.2 | 35.4 | 4.9 | traces | 0 | 0 | 0 | 83.2 |  |
| Nc1ncnc2c1ncn2[C@H]1CC(O)[C@@H](COP(=O)(O)N(CC(=O)O)CP(=O)(O)O)O1 (stereo partly shown) [Compound 8] |  |  |  |  |  |  |  |  |  |  |  | 11.8 | 37.7 | 7.9 | traces | 1.2 | 0.6 | 1.2 | 70.8 |  |
| Nc1ncnc2c1ncn2[C@H]1C[C@H](O)[C@@H](COP(=O)(O)NCCS(=O)(=O)O)O1 [Compound 1, 2′-deoxyadenosine-5′-taurine phosphoramidate] | 3.5 | 4.0 | 4.8 | 6.3 | 7.2 | 3.1 | 5.7 | 4.6 | 5.1 | 4.3 | 54.7 |  |  |  |  |  |  |  |  | % of P + 1 ([3]; 500 μM substrate, 10 min): 12.8%; % of P + 1 ([3]; 500 μM substrate, 20 min): 16.6%; % of P + 1 ([3]; 500 μM substrate, 30 min): 19.8%; % of P + 1 ([3]; 500 μM substrate, 60 min): 20.1%; % of P + 1 ([3]; 500 μM substrate, 120 min): 20.2%; % of P + 1 ([3]; 1 mM substrate, 10 min): 26.6%; % of P + 1 ([3]; 1 mM substrate, 20 min): 41.0%; % of P + 1 ([3]; 1 mM substrate, 30 min): 55.1%; % of P + 1 ([3]; 1 mM substrate, 120 min): 55.7% |
| Nc1ncnc2c1ncn2[C@H]1C[C@H](O)[C@@H](COP(=O)(O)N[C@@H](COP(=O)(O)O)C(=O)O)O1 [Compound 5, 2′-Deoxyadenosine-5′-(O-phospho-L-serine) phosphoramidate] | 3.1 | 3.2 | 4.6 | 5.1 | 5.2 | 3.7 | 4.6 | 5.8 | 6.6 | 9.5 | 19.4 |  |  |  |  |  |  |  |  | substrate quality for HIV-1 RT (in words) [4]: much less good substrates |
| Nc1ncnc2c1ncn2C1CC(O)C(COP(=O)(O)NC(CC(=O)O)C(=O)O)O1 [L-aspartic acid phosphoramidate of dAMP] |  |  |  |  |  |  |  |  |  |  |  |  |  |  |  |  |  |  |  | substrate / leaving group quality for the polymerase (in words), already known [1]: acceptable leaving group |
